Experimental data from PMC6704710, “Preclinical evaluation of 3D185, a novel potent inhibitor of FGFR1/2/3 and CSF-1R, in FGFR-dependent and macrophage-dominant cancer models” (Journal of Experimental & Clinical Cancer Research : CR, 2019).

What was measured:
Experiment in all cases: Eurofins kinase panel
Type in all cases: biochemical
Conditions in all cases: read-out: Inhibition rate (%)
CDK3/cyclinE(h) = target: T1, CDK3/cyclinE(h) (Homo sapiens, UniProt Q00526)
T1 construct: purchased Eurofins (KinaseProfiler)

IR(h), activated = target: T2, IR(h), activated (Homo sapiens, UniProt P06213)
T2 construct: purchased Eurofins (KinaseProfiler)

MYLK2(h) = target: T3, MYLK2(h) (Homo sapiens, UniProt Q9H1R3)
T3 construct: purchased Eurofins (KinaseProfiler)

EGFR(T790M)(h) = target: T4, EGFR(T790M)(h) (Homo sapiens, UniProt P00533, T790M)
T4 construct: purchased Eurofins (KinaseProfiler)

TGFBR2(h) = target: T5, TGFBR2(h) (Homo sapiens, UniProt P37173)
T5 construct: purchased Eurofins (KinaseProfiler)

A-Raf(h) = target: T6, A-Raf(h) (Homo sapiens, UniProt P10398)
T6 construct: purchased Eurofins (KinaseProfiler)
T6 sequence (P10398 1-606): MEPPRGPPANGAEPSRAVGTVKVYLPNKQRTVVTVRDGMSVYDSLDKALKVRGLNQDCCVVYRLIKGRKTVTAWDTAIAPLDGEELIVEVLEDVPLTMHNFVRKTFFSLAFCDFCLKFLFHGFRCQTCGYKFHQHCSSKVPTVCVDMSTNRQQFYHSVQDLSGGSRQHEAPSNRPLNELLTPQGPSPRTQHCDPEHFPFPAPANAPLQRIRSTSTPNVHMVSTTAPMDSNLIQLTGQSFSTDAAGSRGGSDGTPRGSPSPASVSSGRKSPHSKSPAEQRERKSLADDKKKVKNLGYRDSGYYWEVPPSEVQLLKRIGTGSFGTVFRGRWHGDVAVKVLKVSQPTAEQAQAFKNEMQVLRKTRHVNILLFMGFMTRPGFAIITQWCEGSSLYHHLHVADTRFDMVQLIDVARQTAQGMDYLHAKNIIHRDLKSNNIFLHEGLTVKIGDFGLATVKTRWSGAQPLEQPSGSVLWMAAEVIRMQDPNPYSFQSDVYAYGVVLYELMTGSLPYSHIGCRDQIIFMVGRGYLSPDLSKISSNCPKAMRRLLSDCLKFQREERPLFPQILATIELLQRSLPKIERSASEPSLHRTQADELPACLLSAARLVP

Tec(h) activated = target: T7, Tec(h) activated (Homo sapiens, UniProt P42680)
T7 construct: purchased Eurofins (KinaseProfiler)
T7 sequence (P42680 1-631): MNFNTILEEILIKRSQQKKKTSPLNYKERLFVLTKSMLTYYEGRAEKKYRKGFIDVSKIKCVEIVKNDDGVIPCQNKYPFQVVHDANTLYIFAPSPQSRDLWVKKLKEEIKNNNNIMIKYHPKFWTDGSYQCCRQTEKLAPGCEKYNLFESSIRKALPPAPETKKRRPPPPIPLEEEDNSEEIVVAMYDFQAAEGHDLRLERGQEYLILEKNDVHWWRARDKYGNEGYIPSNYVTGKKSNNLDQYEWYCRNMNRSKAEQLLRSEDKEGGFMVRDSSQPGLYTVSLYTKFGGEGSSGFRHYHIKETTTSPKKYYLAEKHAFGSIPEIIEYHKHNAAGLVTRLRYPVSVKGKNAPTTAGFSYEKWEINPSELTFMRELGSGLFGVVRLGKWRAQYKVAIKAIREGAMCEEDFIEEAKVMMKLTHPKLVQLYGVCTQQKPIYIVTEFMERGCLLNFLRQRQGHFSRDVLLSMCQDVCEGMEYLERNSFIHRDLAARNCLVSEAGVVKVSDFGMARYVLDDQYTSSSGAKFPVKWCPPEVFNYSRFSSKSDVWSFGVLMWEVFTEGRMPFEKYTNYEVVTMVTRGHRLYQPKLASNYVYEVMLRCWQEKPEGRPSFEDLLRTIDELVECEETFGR

[1] = target: T8, PI3 Kinase (p110δ/p85α)(h) (Homo sapiens, UniProt O00329)
T8 construct: purchased Eurofins (KinaseProfiler)

PKCδ(h) = target: T9, PKCδ(h) (Homo sapiens, UniProt Q05655)
T9 construct: purchased Eurofins (KinaseProfiler)

MEKK2(h) = target: T10, MEKK2(h) (Homo sapiens, UniProt Q9Y2U5)
T10 construct: purchased Eurofins (KinaseProfiler)
T10 sequence (Q9Y2U5 1-619): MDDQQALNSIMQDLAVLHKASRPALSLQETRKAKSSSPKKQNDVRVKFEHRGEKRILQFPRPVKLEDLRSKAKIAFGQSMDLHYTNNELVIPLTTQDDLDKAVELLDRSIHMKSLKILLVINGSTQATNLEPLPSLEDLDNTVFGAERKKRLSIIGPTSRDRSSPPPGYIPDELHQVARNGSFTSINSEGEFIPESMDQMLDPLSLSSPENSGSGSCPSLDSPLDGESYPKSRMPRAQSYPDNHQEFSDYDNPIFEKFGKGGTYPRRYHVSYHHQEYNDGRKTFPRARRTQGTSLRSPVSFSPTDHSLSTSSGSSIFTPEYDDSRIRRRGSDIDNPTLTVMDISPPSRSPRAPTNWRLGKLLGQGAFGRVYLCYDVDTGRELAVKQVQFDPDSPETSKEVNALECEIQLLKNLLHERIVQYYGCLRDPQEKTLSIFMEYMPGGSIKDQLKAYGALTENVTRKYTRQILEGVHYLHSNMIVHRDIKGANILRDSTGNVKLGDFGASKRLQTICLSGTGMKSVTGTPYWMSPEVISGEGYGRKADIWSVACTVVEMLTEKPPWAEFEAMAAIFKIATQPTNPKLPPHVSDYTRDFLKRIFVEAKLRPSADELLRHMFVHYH

T4 sequence (P00533 25-1210 T790M): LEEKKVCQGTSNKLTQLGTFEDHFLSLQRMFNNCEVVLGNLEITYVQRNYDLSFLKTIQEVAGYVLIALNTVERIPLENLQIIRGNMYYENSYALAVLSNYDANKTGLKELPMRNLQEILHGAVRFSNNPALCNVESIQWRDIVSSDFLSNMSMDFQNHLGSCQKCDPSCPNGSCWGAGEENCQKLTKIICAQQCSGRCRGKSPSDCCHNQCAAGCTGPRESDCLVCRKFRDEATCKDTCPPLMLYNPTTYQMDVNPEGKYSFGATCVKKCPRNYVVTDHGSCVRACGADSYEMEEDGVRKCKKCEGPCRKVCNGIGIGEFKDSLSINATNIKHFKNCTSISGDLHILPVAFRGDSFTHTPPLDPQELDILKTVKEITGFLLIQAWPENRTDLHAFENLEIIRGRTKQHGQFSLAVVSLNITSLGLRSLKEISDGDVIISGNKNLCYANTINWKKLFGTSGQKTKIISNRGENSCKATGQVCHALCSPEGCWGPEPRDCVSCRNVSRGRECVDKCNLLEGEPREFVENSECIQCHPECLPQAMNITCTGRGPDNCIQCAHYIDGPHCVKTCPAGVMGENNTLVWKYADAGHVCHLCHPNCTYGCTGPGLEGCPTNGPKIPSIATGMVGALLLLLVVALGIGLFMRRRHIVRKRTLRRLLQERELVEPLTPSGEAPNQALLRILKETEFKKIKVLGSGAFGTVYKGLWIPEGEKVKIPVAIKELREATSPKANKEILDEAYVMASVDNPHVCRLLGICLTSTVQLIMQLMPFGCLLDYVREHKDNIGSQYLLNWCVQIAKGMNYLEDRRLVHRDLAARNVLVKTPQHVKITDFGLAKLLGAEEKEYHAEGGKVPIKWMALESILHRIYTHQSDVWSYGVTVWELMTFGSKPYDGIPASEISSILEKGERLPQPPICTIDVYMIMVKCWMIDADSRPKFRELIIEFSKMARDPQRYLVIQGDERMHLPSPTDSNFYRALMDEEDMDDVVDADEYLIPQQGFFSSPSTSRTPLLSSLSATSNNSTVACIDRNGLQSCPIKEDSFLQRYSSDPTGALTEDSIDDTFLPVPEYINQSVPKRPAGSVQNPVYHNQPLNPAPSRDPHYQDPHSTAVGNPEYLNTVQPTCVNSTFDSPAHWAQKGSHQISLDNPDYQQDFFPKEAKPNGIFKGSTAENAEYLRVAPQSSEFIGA
T3 sequence (Q9H1R3 whole entry): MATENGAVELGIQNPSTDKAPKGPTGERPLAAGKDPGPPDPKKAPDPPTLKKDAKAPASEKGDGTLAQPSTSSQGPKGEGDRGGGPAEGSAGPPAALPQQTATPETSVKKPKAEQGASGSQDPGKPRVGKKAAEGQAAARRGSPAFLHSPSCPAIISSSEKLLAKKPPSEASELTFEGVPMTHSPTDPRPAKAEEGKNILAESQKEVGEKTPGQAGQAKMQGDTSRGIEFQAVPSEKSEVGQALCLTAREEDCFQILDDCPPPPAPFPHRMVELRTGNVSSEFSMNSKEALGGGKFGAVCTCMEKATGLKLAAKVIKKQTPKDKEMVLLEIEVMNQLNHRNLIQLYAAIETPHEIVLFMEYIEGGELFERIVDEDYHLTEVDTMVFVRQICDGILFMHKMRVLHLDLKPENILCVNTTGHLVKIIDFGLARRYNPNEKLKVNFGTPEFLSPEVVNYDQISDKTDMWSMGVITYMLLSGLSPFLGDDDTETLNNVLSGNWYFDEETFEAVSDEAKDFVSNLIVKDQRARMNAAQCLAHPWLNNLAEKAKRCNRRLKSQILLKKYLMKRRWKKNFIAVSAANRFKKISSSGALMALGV
T1 sequence (Q00526 whole entry): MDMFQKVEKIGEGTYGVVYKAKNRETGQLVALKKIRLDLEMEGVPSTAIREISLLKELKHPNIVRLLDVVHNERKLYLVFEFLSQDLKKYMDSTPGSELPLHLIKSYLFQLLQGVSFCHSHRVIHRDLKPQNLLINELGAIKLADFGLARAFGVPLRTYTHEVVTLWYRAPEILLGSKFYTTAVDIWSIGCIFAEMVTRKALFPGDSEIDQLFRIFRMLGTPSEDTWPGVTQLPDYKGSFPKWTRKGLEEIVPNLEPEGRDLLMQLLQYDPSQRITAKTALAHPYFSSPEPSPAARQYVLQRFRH
T1 sequence (P24864 whole entry partner): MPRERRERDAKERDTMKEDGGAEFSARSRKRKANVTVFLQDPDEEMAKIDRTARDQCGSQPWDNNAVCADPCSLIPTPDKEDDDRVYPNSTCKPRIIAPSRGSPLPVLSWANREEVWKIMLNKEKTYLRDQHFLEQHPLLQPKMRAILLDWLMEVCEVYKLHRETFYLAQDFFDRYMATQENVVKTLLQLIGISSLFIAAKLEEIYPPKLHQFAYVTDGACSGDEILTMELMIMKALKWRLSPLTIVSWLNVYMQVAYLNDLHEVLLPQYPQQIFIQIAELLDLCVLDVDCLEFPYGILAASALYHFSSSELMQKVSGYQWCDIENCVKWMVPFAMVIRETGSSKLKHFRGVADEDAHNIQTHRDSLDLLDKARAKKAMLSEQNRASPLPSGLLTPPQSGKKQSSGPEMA
T8 sequence (O00329 whole entry): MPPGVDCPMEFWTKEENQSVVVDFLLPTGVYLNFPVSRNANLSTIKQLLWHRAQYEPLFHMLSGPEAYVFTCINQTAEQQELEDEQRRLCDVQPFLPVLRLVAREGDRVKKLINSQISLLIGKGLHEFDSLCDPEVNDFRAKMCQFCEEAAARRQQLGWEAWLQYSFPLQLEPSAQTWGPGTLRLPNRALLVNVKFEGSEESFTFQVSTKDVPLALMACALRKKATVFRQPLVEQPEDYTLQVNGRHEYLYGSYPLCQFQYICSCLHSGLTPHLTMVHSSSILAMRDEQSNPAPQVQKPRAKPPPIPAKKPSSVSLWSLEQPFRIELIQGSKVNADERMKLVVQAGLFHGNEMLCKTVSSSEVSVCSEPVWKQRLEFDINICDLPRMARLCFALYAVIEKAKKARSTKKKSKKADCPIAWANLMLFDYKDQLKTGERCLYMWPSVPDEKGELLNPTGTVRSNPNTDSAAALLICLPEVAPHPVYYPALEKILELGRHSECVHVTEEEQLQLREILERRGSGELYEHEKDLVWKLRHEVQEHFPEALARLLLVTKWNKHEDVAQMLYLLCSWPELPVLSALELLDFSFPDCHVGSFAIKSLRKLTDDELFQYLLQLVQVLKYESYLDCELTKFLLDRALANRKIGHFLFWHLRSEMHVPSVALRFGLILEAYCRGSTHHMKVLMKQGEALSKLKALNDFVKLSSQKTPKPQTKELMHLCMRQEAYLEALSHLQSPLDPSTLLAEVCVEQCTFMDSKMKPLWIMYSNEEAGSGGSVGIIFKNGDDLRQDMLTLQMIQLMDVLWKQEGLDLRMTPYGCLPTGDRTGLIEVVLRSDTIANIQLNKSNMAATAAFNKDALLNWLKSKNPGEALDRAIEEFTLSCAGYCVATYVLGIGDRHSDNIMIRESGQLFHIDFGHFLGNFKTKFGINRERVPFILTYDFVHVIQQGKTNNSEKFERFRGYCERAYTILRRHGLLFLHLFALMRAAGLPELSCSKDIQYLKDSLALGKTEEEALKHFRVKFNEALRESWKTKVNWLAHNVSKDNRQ
T8 sequence (P27986 whole entry partner): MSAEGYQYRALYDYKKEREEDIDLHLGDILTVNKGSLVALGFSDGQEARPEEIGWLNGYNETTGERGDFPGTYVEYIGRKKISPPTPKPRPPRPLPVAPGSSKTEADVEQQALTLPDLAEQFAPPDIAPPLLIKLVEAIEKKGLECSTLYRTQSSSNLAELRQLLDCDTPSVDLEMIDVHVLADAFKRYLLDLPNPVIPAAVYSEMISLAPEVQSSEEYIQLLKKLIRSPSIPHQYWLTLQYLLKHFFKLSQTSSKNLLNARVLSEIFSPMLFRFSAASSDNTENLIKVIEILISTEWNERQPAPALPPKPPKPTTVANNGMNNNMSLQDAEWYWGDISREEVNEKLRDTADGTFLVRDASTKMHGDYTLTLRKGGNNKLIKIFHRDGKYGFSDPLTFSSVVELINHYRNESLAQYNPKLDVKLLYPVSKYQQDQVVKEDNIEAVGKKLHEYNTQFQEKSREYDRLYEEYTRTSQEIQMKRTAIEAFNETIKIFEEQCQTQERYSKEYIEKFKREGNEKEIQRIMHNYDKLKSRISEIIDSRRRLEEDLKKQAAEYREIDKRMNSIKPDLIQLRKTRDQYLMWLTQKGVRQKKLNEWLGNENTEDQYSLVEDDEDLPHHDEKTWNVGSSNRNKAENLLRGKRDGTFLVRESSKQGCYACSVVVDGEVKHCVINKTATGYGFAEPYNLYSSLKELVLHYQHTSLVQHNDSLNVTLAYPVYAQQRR
T5 sequence (P37173 23-567): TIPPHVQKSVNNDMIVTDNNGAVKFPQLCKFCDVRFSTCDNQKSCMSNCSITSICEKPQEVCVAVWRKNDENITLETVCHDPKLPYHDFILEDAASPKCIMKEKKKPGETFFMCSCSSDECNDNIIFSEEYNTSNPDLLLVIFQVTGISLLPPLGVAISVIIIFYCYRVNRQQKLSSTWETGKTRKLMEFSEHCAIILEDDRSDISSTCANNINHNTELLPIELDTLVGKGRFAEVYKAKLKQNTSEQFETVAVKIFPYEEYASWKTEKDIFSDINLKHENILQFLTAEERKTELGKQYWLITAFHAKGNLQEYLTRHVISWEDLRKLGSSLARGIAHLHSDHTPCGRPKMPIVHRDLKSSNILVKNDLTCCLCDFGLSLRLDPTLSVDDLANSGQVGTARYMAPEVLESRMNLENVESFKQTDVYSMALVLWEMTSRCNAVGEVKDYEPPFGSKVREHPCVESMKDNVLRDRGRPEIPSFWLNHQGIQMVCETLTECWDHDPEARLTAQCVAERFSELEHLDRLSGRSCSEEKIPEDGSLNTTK

COc1cc(OC)c(Cl)c(-c2ccc3c(NC(=O)c4ccc(N5CCNC(C)(C)C5)cc4)n[nH]c3n2)c1Cl [3D185]
inhibition at 0.01 µM (CDK3/cyclinE(h); 10 nM): 1% | inhibition at 0.1 µM (CDK3/cyclinE(h); 100 nM): -11% | inhibition at 1 µM (CDK3/cyclinE(h); 1000 nM): -19% | inhibition at 0.01 µM (IR(h), activated; 10 nM): 9% | inhibition at 0.1 µM (IR(h), activated; 100 nM): 42% | inhibition at 1 µM (IR(h), activated; 1000 nM): 85% | inhibition at 0.01 µM (MYLK2(h); 10 nM): 7% | inhibition at 0.1 µM (MYLK2(h); 100 nM): 0% | inhibition at 1 µM (MYLK2(h); 1000 nM): 21% | inhibition at 0.01 µM (EGFR(T790M)(h); 10 nM): -15% | inhibition at 0.1 µM (EGFR(T790M)(h); 100 nM): -8% | inhibition at 1 µM (EGFR(T790M)(h); 1000 nM): 29% | inhibition at 0.01 µM (TGFBR2(h); 10 nM): -10% | inhibition at 0.1 µM (TGFBR2(h); 100 nM): -5% | inhibition at 1 µM (TGFBR2(h); 1000 nM): -9% | inhibition at 0.01 µM (A-Raf(h); 10 nM): -7% | inhibition at 0.1 µM (A-Raf(h); 100 nM): -7% | inhibition at 1 µM (A-Raf(h); 1000 nM): -4% | inhibition at 0.01 µM (Tec(h) activated; 10 nM): 3% | inhibition at 0.1 µM (Tec(h) activated; 100 nM): 9% | inhibition at 1 µM (Tec(h) activated; 1000 nM): 23% | inhibition at 0.01 µM ([1]; 10 nM): 1% | inhibition at 0.1 µM ([1]; 100 nM): -4% | inhibition at 1 µM ([1]; 1000 nM): 5% | inhibition at 0.01 µM (PKCδ(h); 10 nM): 5% | inhibition at 0.1 µM (PKCδ(h); 100 nM): 4% | inhibition at 1 µM (PKCδ(h); 1000 nM): -1% | inhibition at 0.01 µM (MEKK2(h); 10 nM): 34% | inhibition at 0.1 µM (MEKK2(h); 100 nM): 85% | inhibition at 1 µM (MEKK2(h); 1000 nM): 97%
